Assay type in all cases: cell-based
The target in assay [1] is chicken TRPM8 (cTRPM8) (Gallus gallus, UniProt A0AA95FIJ1).
In assay [2] the target is T1, human TRPM8 (hTRPM8) (Homo sapiens, UniProt Q7Z2W7).
In assay [3] the target is T2, rat TRPM8 (rTRPM8) (Rattus norvegicus, UniProt Q8R455).
For assay [4], the target named is T1, human TRPM8 (hTRPM8). The assay can be described thus: calcium imaging.
Assay [5] has as its target T2, rat TRPM8 (rTRPM8). The assay can be described thus: calcium imaging.

T1 sequence (Q7Z2W7 whole entry): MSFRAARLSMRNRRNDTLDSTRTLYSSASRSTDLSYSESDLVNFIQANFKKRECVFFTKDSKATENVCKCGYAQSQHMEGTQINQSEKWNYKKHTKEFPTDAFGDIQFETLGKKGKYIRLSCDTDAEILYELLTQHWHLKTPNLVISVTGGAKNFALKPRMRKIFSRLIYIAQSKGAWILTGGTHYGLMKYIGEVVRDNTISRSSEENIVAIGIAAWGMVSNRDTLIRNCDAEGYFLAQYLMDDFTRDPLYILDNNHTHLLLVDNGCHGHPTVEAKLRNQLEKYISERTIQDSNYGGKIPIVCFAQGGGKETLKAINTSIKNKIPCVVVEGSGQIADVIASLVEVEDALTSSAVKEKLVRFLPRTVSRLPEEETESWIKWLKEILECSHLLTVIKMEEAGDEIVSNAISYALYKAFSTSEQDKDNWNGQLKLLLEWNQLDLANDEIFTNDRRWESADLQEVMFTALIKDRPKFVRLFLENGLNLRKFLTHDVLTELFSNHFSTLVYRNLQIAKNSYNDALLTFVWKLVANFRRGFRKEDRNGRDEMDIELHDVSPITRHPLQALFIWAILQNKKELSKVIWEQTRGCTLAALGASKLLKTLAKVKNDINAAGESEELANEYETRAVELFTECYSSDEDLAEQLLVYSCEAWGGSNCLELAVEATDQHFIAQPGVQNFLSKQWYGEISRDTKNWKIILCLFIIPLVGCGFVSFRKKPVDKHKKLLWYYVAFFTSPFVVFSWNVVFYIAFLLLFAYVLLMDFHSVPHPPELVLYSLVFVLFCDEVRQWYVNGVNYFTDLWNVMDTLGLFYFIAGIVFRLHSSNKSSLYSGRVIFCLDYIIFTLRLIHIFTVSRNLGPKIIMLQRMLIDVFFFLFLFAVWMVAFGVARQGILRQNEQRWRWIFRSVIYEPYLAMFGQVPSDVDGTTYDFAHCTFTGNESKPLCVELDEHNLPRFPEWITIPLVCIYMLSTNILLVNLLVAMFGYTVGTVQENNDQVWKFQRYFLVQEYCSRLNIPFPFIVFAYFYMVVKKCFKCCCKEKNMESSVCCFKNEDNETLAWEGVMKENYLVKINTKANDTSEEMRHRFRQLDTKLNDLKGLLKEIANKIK
T2 sequence (Q8R455 whole entry): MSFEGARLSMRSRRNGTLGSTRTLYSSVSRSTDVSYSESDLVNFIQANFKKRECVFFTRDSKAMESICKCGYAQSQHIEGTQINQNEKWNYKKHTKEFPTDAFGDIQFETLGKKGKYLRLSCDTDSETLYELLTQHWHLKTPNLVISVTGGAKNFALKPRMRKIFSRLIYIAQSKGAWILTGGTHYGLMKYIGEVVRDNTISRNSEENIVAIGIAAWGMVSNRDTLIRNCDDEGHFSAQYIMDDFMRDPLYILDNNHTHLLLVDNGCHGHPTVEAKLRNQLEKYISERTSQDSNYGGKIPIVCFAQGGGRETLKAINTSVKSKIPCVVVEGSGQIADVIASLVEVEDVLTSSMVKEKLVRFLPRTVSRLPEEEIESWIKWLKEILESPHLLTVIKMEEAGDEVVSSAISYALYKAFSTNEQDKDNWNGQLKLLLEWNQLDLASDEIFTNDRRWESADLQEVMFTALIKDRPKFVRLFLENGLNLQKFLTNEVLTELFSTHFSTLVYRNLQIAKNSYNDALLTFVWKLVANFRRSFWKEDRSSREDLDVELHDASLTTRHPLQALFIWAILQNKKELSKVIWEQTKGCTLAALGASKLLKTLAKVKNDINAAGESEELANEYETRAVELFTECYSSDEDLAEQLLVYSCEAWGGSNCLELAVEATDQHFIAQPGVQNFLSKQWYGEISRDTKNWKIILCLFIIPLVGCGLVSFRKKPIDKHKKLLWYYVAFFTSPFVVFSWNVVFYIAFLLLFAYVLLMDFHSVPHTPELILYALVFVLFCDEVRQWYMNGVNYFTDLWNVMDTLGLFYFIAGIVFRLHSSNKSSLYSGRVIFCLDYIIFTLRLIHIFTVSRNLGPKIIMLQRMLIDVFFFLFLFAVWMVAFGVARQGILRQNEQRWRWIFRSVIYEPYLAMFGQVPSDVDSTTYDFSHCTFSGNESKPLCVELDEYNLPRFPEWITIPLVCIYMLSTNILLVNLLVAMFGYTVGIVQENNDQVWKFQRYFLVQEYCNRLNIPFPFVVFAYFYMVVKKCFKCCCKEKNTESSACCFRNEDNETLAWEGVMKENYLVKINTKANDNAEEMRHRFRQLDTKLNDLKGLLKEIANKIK
chicken TRPM8 (cTRPM8), sequence (A0AA95FIJ1 1-1111): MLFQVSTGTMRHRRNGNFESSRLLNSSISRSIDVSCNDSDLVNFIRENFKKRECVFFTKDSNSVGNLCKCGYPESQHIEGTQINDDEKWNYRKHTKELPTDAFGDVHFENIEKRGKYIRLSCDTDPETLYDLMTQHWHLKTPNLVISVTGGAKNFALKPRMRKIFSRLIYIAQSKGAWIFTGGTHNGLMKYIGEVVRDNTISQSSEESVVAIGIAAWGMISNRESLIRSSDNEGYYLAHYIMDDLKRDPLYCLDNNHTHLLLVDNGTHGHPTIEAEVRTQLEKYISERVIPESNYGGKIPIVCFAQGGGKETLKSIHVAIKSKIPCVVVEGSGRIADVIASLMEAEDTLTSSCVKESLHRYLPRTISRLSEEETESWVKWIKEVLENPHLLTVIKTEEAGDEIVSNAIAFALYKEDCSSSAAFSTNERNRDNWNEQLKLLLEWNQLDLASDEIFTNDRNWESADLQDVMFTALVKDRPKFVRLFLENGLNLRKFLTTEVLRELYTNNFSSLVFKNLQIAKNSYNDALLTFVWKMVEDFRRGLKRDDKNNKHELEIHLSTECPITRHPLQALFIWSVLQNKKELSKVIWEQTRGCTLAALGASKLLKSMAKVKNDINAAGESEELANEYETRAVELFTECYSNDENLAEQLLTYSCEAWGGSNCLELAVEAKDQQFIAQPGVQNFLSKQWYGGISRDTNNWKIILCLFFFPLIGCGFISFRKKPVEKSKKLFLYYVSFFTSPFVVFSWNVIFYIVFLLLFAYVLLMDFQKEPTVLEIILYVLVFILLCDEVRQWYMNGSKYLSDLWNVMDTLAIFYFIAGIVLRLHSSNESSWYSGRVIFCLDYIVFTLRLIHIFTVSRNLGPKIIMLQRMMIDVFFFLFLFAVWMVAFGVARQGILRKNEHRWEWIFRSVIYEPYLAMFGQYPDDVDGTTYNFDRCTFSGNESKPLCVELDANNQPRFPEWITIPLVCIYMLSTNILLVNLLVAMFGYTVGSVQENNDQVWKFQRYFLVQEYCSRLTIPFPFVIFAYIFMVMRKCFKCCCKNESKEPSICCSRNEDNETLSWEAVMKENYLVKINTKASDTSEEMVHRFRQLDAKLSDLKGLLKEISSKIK

What is called EC50 is the concentration needed to bring the measured effect to its halfway point. With `CCCCCCCP(=O)(C(C)C)C(C)C` [C-1, 1-di(propan-2-yl)phosphorylheptane], the half-maximal effective concentration (EC50) in assay [1] was 250 nM; in assay [2], 2430 nM; in assay [3], “Rat TRPM8 showed intermediate EC50 values”.

As for `O=C1NC(c2cccc([N+](=O)[O-])c2)=CCN1c1ccccc1O` [icilin, 1-(2-hydroxyphenyl)-4-(V3-nitrophenyl)-l,2,3,6-tetrahydropyrimidine-2-one], the “calcium imaging (10 μM) in transfected HEK293T cells” value in assay [4] is “As expected, icilin activated only the mammalian orthologs”; in assay [5], “As expected, icilin activated only the mammalian orthologs”.

For the origin of these results see PMC12830821 (Communications Biology, 2025).
